This note sets out measurements from ChEMBL document CHEMBL1201862, “PubChem BioAssay data set” (2004).

Active and inactive are the calls of the source.

Experiment [1] has as its target T1, RNA-binding protein pos-1 (Caenorhabditis elegans, UniProt G5EF15).
T1 sequence (G5EF15 whole entry): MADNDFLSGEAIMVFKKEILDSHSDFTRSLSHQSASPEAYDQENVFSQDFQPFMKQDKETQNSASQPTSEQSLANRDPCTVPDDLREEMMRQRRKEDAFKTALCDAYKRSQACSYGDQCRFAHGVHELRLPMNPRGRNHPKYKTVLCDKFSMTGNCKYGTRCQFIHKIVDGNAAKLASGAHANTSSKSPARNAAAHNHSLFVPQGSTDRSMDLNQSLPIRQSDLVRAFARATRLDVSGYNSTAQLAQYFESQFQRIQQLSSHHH
Put plainly: disruptors of C. elegans POS-1 RNA interaction – biochemical, fluorescence polarization, dose response (AID 1964).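 Further: purified POS-1 fused to maltose binding protein made in E. coli; potency of compounds blocking POS-1 binding to fluorescent RNA.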 In general terms: In fluorescence polarisation assays a small probe gives low polarisation when free and higher when bound to something large.

Experiment [2] deals with T2, Zinc finger protein mex-5 (Caenorhabditis elegans, UniProt Q9XUB2).
T2 sequence (Q9XUB2 whole entry): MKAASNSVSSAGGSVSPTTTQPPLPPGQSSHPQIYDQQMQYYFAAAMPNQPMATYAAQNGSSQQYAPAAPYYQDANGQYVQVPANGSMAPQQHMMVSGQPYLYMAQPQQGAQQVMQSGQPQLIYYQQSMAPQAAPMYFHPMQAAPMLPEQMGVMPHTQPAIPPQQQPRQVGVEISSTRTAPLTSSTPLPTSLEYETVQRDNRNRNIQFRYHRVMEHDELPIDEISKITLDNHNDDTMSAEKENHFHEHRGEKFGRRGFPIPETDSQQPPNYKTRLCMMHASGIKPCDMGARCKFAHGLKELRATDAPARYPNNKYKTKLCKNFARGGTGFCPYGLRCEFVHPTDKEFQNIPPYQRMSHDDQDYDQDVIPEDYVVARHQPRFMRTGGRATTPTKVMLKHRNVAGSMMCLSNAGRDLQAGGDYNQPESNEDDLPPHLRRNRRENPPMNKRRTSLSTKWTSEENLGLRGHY
In words: potency of MEX-5 RNA-binding blockers – biochemical, C. elegans, fluorescence polarization, dose response (AID 1960).

The target in experiment [3] is 26S proteasome non-ATPase regulatory subunit 14 (Homo sapiens, UniProt O00487). Put plainly: inhibition of proteasome subunit RPN11 – biochemical, fluorescence polarization, uHTS hits, confirmation (AID 602368). Format: functional.
Experiment [4] has as its target 72 kDa type IV collagenase (Homo sapiens, UniProt P08253). In words: Dose Response validation of uHTS RPN11 inhibitor hits using a MMP-2 Fluorescence assay. It is filed as functional.
The next experiment concerns the target Prothrombin (Bos taurus, UniProt P00735). Put plainly: thrombin protease inhibitors – biochemical, fluorescence polarization, uHTS hits, dose response (AID 602369). Format: functional.
The nature of experiment [5]: HEK-293T cell viability reduction – luminescence, B-cell screen hits, cytotoxicity control for BCR NF-kB inhibitor project, dose response (AID 489021).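 Further: HEK-293T cells carrying an NF-kB luciferase reporter; cells exposed to compound for about 14 hours before viability readout.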 It is filed as functional, cell-based.
In another experiment the target is Genome polyprotein (dengue virus type 2, UniProt P29990). In words: flavivirus cap methylation enzyme inhibition – biochemical, confirmation dose response, primary screen (AID 588689). Format: functional.
Experiment [6] has as its target T3, Hepatocyte nuclear factor 4-alpha (Homo sapiens, UniProt P41235).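 Further: biochemical luminescence-based dose-response counterscreen measuring inhibition of HNF4 dimerization, run alongside a screen for blockers of ABHD5–perilipin-5 interaction; split luciferase complementation of HNF4 fusion proteins in cell lysate measuring dimerization.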
T3 sequence (P41235 whole entry): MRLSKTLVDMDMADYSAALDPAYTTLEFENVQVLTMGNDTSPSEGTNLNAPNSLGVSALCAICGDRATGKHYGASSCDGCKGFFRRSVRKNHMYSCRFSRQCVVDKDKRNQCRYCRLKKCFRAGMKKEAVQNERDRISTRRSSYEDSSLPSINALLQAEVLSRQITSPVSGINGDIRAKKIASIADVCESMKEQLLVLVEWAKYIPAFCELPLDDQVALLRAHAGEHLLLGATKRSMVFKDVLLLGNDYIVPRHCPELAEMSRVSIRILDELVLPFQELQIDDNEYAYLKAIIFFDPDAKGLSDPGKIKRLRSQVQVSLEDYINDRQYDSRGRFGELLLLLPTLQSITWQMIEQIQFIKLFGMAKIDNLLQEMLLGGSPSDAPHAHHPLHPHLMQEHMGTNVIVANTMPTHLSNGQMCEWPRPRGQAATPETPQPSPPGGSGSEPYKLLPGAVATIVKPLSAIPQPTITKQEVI
It is filed as functional, cell-based.

The target of a further experiment is T4, Caspase-3 (Homo sapiens, UniProt P42574).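 Further: Dose-response selectivity test against caspase-3 for candidate inhibitors of sentrin-specific proteases (SENPs).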
T4 sequence (P42574 whole entry): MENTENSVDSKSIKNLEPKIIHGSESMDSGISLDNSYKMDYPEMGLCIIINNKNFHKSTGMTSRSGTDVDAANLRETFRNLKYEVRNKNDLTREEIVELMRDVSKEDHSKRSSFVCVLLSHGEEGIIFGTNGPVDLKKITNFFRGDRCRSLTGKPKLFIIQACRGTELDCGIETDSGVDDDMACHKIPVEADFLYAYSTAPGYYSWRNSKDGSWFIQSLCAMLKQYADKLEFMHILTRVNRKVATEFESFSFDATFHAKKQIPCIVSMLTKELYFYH
It is filed as functional.

Experiment [7] has as its target T5, Sentrin-specific protease 7 (Homo sapiens, UniProt Q9BQF6).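 Further: Luminescence-based dose-response confirmation of ultra-high-throughput screening hits, measuring inhibition of SENP7.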
T5 sequence (Q9BQF6 whole entry): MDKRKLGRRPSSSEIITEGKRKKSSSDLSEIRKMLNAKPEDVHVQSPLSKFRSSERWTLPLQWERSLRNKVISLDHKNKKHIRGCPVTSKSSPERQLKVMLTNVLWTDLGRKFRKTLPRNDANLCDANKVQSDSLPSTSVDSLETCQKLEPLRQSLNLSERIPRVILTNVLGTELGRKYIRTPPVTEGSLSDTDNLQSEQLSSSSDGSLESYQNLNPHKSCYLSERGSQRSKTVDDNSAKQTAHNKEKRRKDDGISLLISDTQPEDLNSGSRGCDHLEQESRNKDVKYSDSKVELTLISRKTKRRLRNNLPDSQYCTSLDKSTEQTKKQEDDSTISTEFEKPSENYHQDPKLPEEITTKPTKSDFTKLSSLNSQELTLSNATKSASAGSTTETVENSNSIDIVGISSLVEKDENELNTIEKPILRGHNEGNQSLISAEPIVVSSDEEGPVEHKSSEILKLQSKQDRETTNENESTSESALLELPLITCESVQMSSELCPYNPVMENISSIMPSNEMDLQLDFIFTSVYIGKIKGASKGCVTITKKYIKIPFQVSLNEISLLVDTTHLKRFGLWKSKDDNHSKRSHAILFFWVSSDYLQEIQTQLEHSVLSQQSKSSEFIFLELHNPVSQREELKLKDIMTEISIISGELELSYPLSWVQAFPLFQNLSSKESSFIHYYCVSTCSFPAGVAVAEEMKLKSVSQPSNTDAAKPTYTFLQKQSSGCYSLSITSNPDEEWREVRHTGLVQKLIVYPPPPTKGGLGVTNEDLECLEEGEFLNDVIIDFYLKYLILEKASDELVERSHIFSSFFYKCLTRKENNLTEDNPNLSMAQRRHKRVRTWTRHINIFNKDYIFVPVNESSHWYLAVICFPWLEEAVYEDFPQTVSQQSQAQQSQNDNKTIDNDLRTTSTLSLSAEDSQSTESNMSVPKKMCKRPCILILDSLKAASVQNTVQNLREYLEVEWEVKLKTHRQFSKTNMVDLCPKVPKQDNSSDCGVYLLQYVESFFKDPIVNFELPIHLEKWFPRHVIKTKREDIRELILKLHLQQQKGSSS
Format: functional.

The target of experiment [8] is T6, Sentrin-specific protease 6 (Homo sapiens, UniProt Q9GZR1).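 Further: Luminescence-based dose-response confirmatory assay of SENP6 inhibition, following up an ultra-high-throughput screen.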
T6 sequence (Q9GZR1 whole entry): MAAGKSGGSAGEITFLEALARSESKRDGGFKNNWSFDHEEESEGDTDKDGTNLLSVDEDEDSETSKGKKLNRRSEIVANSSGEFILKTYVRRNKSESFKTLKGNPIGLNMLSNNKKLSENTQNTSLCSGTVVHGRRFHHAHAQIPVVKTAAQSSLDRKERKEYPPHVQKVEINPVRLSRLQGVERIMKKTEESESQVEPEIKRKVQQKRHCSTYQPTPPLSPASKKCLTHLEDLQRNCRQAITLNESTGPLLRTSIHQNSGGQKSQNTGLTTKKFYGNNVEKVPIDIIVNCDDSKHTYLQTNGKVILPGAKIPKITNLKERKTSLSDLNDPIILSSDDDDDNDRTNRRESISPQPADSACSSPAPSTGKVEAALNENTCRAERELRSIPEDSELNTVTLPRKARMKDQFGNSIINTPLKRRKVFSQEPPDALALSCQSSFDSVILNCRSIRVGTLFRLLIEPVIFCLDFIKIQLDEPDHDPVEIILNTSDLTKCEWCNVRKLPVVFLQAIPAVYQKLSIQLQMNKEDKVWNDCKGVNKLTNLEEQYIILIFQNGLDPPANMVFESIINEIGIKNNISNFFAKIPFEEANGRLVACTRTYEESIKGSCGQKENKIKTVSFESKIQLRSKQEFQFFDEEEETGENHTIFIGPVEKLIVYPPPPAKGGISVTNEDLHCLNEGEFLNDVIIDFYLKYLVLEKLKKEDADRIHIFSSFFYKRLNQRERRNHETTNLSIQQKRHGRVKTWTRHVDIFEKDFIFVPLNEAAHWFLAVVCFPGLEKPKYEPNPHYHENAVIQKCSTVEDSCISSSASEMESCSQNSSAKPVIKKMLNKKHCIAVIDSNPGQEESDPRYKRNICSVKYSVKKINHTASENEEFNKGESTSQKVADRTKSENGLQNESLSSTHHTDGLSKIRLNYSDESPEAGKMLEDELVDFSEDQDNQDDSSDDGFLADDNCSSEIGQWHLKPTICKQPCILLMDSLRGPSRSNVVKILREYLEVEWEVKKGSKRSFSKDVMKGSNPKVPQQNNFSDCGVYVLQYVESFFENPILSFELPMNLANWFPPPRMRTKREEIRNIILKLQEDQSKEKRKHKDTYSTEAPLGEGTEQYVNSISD
It is filed as functional.

For experiment [9], the target named is T7, Sentrin-specific protease 8 (Homo sapiens, UniProt Q96LD8).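 Further: luminescence read-out of SENP8 inhibition, dose-response confirmation following an ultra-high-throughput screen.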
T7 sequence (Q96LD8 whole entry): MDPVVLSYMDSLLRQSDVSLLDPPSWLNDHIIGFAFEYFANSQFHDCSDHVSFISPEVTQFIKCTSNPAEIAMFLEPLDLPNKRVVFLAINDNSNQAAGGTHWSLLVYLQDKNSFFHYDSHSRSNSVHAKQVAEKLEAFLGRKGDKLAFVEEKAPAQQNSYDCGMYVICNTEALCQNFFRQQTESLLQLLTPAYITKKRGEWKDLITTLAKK
Format: functional.

Experiment [10] addresses T8, Endoribonuclease toxin MazF (Escherichia coli K-12, UniProt P0AE70).
T8 sequence (P0AE70 whole entry): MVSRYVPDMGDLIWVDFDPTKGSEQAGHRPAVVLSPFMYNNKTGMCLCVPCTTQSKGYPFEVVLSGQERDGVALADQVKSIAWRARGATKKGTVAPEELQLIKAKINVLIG
Put plainly: activation of MazEF endoribonuclease cleavage – biochemical, fluorescence, single-stranded RNA substrate, uHTS hits, dose response (AID 588481). Format: functional.

Experiment [11] has as its target T8, Endoribonuclease toxin MazF. In words: substrate-only fluorescence increase artefacts – biochemical, single-stranded RNase substrate, counter-screen for MazEF activator project, dose response (AID 588502). Format: functional. For orientation: A counterscreen serves to expose hits that act by an unwanted route or on another target.
The next experiment concerns the target T9, Protein skinhead-1 (Caenorhabditis elegans, UniProt P34707).
T9 sequence (P34707 whole entry): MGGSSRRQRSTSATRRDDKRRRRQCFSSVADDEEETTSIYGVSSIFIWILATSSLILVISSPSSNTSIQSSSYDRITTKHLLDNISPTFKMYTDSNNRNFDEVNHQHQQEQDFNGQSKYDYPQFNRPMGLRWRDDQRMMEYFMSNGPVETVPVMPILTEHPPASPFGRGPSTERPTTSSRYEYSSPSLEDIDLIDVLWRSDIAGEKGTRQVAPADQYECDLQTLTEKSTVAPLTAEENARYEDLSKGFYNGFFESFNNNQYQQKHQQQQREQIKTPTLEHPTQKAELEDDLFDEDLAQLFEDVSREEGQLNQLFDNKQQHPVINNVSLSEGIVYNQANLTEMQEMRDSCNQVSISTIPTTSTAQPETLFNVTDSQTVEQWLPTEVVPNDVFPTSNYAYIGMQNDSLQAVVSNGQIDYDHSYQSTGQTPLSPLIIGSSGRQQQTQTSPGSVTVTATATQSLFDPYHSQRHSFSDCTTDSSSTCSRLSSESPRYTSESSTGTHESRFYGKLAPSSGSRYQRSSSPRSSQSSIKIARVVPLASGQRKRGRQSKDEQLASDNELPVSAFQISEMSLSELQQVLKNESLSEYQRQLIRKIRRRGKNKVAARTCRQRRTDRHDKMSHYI
Format: functional.

Chain of 72 kDa type IV collagenase (P08253 whole entry): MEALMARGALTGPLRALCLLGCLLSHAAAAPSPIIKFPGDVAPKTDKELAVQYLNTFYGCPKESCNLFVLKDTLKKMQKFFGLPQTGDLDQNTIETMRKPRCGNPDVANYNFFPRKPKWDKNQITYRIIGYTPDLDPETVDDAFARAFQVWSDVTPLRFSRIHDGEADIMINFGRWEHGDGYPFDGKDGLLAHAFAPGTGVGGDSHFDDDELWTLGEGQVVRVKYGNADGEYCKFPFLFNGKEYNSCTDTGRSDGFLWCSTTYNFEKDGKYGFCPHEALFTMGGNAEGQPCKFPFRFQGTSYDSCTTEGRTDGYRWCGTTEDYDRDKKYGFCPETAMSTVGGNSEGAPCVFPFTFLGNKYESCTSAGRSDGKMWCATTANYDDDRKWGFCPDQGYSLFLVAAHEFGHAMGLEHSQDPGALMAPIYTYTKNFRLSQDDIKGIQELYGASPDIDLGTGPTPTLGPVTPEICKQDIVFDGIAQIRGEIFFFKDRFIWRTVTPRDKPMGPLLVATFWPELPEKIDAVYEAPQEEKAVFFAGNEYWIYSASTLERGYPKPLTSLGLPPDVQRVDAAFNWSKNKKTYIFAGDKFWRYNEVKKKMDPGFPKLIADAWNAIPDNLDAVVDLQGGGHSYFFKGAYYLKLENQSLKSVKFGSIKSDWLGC
Chain of 26S proteasome non-ATPase regulatory subunit 14 (O00487 whole entry): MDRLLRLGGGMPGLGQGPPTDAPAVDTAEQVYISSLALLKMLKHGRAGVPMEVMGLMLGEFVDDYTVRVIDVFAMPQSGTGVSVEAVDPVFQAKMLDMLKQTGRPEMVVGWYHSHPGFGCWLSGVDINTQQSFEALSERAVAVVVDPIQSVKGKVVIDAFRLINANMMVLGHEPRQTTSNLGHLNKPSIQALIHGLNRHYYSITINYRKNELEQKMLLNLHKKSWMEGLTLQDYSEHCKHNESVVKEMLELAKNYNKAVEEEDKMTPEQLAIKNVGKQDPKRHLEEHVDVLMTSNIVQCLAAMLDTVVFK
Chain of Genome polyprotein (P29990 2492-3391 limits assumed): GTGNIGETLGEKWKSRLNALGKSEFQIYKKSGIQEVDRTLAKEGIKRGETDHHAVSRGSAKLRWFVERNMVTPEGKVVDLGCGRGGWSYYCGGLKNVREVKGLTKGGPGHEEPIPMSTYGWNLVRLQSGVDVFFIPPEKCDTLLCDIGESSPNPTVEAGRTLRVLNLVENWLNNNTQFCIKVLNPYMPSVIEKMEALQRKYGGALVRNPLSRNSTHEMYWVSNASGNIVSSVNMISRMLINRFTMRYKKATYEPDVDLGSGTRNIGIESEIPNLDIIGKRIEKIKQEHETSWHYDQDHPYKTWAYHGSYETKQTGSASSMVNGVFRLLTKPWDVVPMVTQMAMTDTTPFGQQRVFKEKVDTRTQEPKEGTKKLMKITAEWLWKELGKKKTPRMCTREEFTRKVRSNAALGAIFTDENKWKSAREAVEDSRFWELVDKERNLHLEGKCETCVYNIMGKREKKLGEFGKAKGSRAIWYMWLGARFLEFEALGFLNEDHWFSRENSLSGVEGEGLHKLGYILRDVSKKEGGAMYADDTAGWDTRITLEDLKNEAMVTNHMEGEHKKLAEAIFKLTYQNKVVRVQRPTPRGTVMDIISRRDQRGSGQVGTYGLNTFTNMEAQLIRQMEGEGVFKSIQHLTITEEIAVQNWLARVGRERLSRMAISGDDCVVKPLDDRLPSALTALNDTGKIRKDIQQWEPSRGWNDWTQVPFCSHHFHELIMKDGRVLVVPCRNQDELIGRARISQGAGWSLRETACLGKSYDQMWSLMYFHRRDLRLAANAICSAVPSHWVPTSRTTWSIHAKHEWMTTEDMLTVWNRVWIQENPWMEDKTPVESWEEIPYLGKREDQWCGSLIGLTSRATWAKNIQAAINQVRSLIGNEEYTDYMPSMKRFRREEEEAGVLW

As for `CCOc1ccc(N2C(=O)/C(=C/Nc3ccnn3Cc3ccncc3)c3ccccc3C2=O)cc1`, the half-maximal effective concentration (EC50) in [1] and in experiment [2] was > 300 µM (not active) each time. The IC50 (usually the point on the concentration scale where inhibition reaches its midpoint) in experiment [3] was 23.9 µM (active); in [4], > 100 µM (inactive); on Prothrombin, 24.6 µM (active).
As to `COc1ccc(/C=C2/SC(=S)N(CCCC(=O)Nc3ccc(O)cc3)C2=O)cc1OC`, the IC50 in [5] was > 80 µM (inactive); in [3] it was 25.2 µM (active); in experiment [4], > 100 µM (inactive); at Prothrombin, 31.8 µM (active).
Turning to `COc1cc(/C=C2/SC(=S)N(CC(=O)Nc3nc4ccccc4s3)C2=O)cc(OC)c1OC`, the half-maximal inhibitory concentration (IC50) was 20.2 µM (active) in experiment [3], > 100 µM (inactive) in experiment [4] and 23.5 µM (active) at Prothrombin.
For `CC(=O)OCC1=C(C(=O)O)N2C(=O)C(NC(=O)CCn3nc(C(F)(F)F)c(Br)c3C3CC3)C2SC1` (stereo not given), the IC50 at Genome polyprotein is 54.8 µM (active); in experiment [6] it was 17.7 µM (inactive).
Take `O=C(NCc1ccccc1)C(c1ccc(-c2ccccc2)cc1)n1c(=O)c(-c2ccco2)nc2ccccc21` (stereo not given): in experiment [6], the IC50 is 3.34 µM (active).
With `CCCCn1c(/N=C/c2ccc(N(C)C)cc2)nc2ccccc21`, the results for the concentration for half-maximal inhibition (IC50) (in experiment [3]; in experiment [4]; at Prothrombin) were 5.14 µM (active), > 100 µM (inactive) and 7.12 µM (active), respectively.
`CN(C)c1ccc(C(=O)/C=C/c2ccccc2)cc1`: the IC50 at Caspase-3 was 8.33 µM (active); in [7], 5.32 µM (active); in [8] it was 11.6 µM (active); in experiment [9] it was 14.3 µM (active); at Protein skinhead-1 it was > 100 µM (inactive). Moreover, the EC50 in experiment [10] and in experiment [11] was > 99 µM (inactive) in each case.
